Reference: EP0284725A2, “Indoxyl-beta-d-glucuronide and method for making” (QUEEN'S UNIVERSITY AT KINGSTON, priority 1987, dated 1988)
Where a name gives a salt, the structure may show the parent alone.

Tests used:
Escherichia coli = test: Enzyme reaction of bacteria on m-TECB based agar media in microtiter plates, read visually by colour; assay type: cell-based
Source text: (§1) Enzyme activity was detected on the m-TEC medium of Dufour et al. (Dufour, A.P., E.R. Strickland and V.J. Cabelli. 1981. Membrane filter method for enumerating Eseherichia coli. Appl. Envion. Microbiol. 41: 1152-1158) prepared with the following modifications: bromocresol purple, bromophenol red and lactose were omitted; the modified m-TEC medium contained (g/1 proteose peptone No. 3, 5.0g; yeast extract 3.0g; glycerol 10.0g; NaCl 7.5g; K2HPO4 3.3g; KH2PO4 1.0g; sodium lauryl sulfate 0.2g; sodium deoxycholate 0.10g and agar 15.0g. The medium was autoclaved for 15 minutes at 121°C. The following chemicals, purchased from the Sigma Chemical Company, St.Louis. Mo., were added separately to the modified m-TEC medium after autoclaving and cooling to 50°C - 60°C: para-nitrophenyl-β- ? -glucuronide 400 mg/l; indoxyl-β- ? -glucoside 250 mg/l. Indoxyl-β- ? -glucuronide, prepared as described in Example 8, was added at 350-400 mg/l. The four agar media used in this study will be referred to as follows: modified m-TEC as m-TECB medium; the formulations of indoxyl-β-D -glucuronide as IGA, para-nitrophenyl-β-D-glucuronide as PNGA, and indoxyl-β-D -glucoside (indican) as IA media.
(§2) In this experiment, four organisms were tested for β- D -glucuronidase and β- D -glucosidase activity: American Type Culture Collection (ATCC) strains Escherichia Coli 35218 and Klebsiella pneumonia 13883; environmental isolates that have been characterized in our laboratory, Escherichia coli 83-17350 and Klebsiella pneumonia PHL.
(§3) A series of m-TECB agar basal media microtiter plates were prepared, using the m-TECB base media described in Example 9, and indoxyl-β- D -glucuronide, p-nitrophenyl-β- D -glucuronide or indoxyl-β-D-glucoside was added to respective plates. Specific bacteria from controlled sources, described above, were applied to the plates and incubated at 45°C for 16 2 hours.

Klebsiella pneumonia = test: as above; assay type: cell-based; details: K. pneumonia
Source text: as §1, §2, §3

| Compound | colour / reactivity (Escherichia coli; Environmental and ATCC strains of E.coli) | colour / reactivity (Klebsiella pneumonia) | hydrolysis by the glucuronidase activity of E. coli (Escherichia coli) |
| --- | --- | --- | --- |
| OC[C@H]1O[C@@H](Oc2c[nH]c3ccccc23)[C@H](O)[C@@H](O)[C@@H]1O [indican, indoxyl-β-D -glucoside] | no reactivity | blue colour |  |
| O=C(O)[C@H]1O[C@@H](Oc2c[nH]c3ccccc23)[C@H](O)[C@@H](O)[C@@H]1O [indoxyl-β- D -glucuronide, Indoxyl-β-D -Glucuronide Sodium Salt] |  |  | readily and specifically hydrolysed |
